Test [1] has as its target Vascular endothelial growth factor receptor 3 (Homo sapiens, UniProt P35916). The test is described as follows: Binding affinity to recombinant N-terminal His-FLAG-GST-tagged FLT4 (unknown origin) (798 to 1298 residues) expressed in baculovirus infected Sf9 insect cells incubated for 1 hr by TR-FRET assay. (In general: In TR-FRET formats the signal depends on donor and acceptor labels being close together.)

For test [2], the target named is Fibroblast growth factor receptor 4 (Homo sapiens, UniProt P22455). Kind of test: Binding affinity to recombinant N-terminal His-FLAG-GST-tagged FGFR4 (unknown origin) (460 to 802 residues) expressed in baculovirus infected Sf9 insect cells incubated for 1 hr by TR-FRET assay.
Test [3] deals with cAMP-dependent protein kinase catalytic subunit alpha (Homo sapiens, UniProt P17612). Kind of test: Binding affinity to recombinant human full length N-terminal GST-tagged PRKACA expressed in baculovirus expression system using kemptide as substrate incubated for 1 hr by TR-FRET assay.
The target in test [4] is Tyrosine-protein kinase ABL2 (Homo sapiens, UniProt P42684). The test is described as follows: Binding affinity to recombinant full-length N-terminal His-FLAG-GST-tagged ABL2 (unknown origin) (2 to 52 and 74 to 1182 residues) expressed in baculovirus infected Sf9 insect cells incubated for 1 hr by TR-FRET assay.
The target in test [5] is Inhibitor of nuclear factor kappa-B kinase subunit epsilon (Homo sapiens, UniProt Q14164). Kind of test: Binding affinity to recombinant full-length N-terminal His-FLAG-GST-tagged IKBKE (unknown origin) expressed in baculovirus infected Sf9 insect cells incubated for 1 hr by TR-FRET assay.
The target of test [6] is Calcium/calmodulin-dependent protein kinase type II subunit delta (Homo sapiens, UniProt Q13557). The test is described as follows: Binding affinity to recombinant human full-length N-terminal GST-tagged CAMK2D expressed in baculovirus expression system using GS peptide as substrate incubated for 1 hr by TR-FRET assay.
Test [7] addresses Tyrosine-protein kinase Tec (Homo sapiens, UniProt P42680). Kind of test: Binding affinity to recombinant human N-terminal GST-tagged TEC (359 to 631 residues) expressed in baculovirus expression system using Srctide as substrate incubated for 1 hr by TR-FRET assay.
For test [8], the target named is Ribosomal protein S6 kinase alpha-3 (Homo sapiens, UniProt P51812). The test is described as follows: Binding affinity to recombinant human full length N-terminal GST-tagged RPS6KA3 expressed in baculovirus expression system using S6K peptide as substrate incubated for 1 hr by TR-FRET assay.
Test [9] concerns the target Protein kinase C gamma type (Homo sapiens, UniProt P05129). Kind of test: Binding affinity to recombinant full-length N-terminal His-FLAG-tagged PRKCG (unknown origin) expressed in baculovirus infected Sf9 insect cells incubated for 1 hr by TR-FRET assay.
The target of test [10] is Fibroblast growth factor receptor 2 (Homo sapiens, UniProt P21802). Kind of test: Binding affinity to recombinant N-terminal His-FLAG-GST-tagged FGFR2 (unknown origin) (399 to 821 residues) expressed in baculovirus infected Sf9 insect cells incubated for 1 hr by TR-FRET assay.
Test [11] concerns the target Serine/threonine-protein kinase ULK3 (Homo sapiens, UniProt Q6PHR2). The test is described as follows: Binding affinity to recombinant full-length N-terminal His-FLAG-GST-tagged ULK3 (unknown origin) expressed in baculovirus infected Sf9 insect cells incubated for 1 hr by TR-FRET assay.
Test [12] deals with Protein kinase C epsilon type (Homo sapiens, UniProt Q02156). Kind of test: Binding affinity to recombinant human full length N-terminal GST-tagged PRKCE expressed in baculovirus expression system using PKC peptide as substrate incubated for 1 hr by TR-FRET assay.
Test [13] deals with Serine/threonine-protein kinase LATS2 (Homo sapiens, UniProt Q9NRM7). Kind of test: Binding affinity to recombinant full-length N-terminal His-FLAG-GST-tagged LATS2 (unknown origin) (553 to 1088 residues) expressed in baculovirus infected Sf9 insect cells incubated for 1 hr by TR-FRET assay.
Test [14] concerns the target STE20-like serine/threonine-protein kinase (Homo sapiens, UniProt Q9H2G2). Kind of test: Binding affinity to recombinant N-terminal His-FLAG-GST-tagged SLK (unknown origin) (1 to 1152 residues) expressed in baculovirus infected Sf9 insect cells incubated for 1 hr by TR-FRET assay.
Test [15] deals with Tyrosine-protein kinase Fer (Homo sapiens, UniProt P16591). The test is described as follows: Binding affinity to recombinant full-length N-terminal His-FLAG-GST-tagged FER (unknown origin) expressed in baculovirus infected Sf9 insect cells incubated for 1 hr by TR-FRET assay.
Test [16] concerns the target Serine/threonine-protein kinase N1 (Homo sapiens, UniProt Q16512). Kind of test: Binding affinity to recombinant full-length N-terminal His-FLAG-GST-tagged PKN1 (unknown origin) expressed in baculovirus infected Sf9 insect cells incubated for 1 hr by TR-FRET assay.
For test [17], the target named is Tyrosine-protein kinase Blk (Homo sapiens, UniProt P51451). Kind of test: Binding affinity to recombinant human full length N-terminal GST-tagged BLK expressed in baculovirus expression system using srctide as substrate incubated for 1 hr by TR-FRET assay.
Test [18] has as its target Serine/threonine-protein kinase ULK2 (Homo sapiens, UniProt Q8IYT8). Kind of test: Binding affinity to recombinant N-terminal His-FLAG-GST-tagged ULK2 (unknown origin) (1 to 478 residues) expressed in baculovirus infected Sf9 insect cells incubated for 1 hr by TR-FRET assay.
The target in test [19] is Ephrin type-A receptor 1 (Homo sapiens, UniProt P21709). The test is described as follows: Binding affinity to recombinant full-length N-terminal His-FLAG-GST-tagged EPHA1 (unknown origin) (586 to 976 residues) expressed in baculovirus infected Sf9 insect cells incubated for 1 hr by TR-FRET assay.
Test [20] deals with 5'-AMP-activated protein kinase catalytic subunit alpha-2 (Homo sapiens, UniProt P54646). Kind of test: Binding affinity to recombinant full-length N-terminal His-FLAG-GST-tagged PRKAA2 (unknown origin) (10 to 552 residues) expressed in baculovirus infected Sf9 insect cells incubated for 1 hr by TR-FRET assay.
Test [21] deals with Mitogen-activated protein kinase kinase kinase 14 (Homo sapiens, UniProt Q99558). Kind of test: Binding affinity to recombinant N-terminal His-FLAG-GST-tagged MAP3K14 (unknown origin) (319 to 947 residues) expressed in baculovirus infected Sf9 insect cells incubated for 1 hr by TR-FRET assay.
In test [22] the target is Protein kinase C beta type (Homo sapiens, UniProt P05771). The test is described as follows: Binding affinity to recombinant full-length N-terminal His-FLAG-tagged PRKCB (unknown origin) expressed in baculovirus infected Sf9 insect cells incubated for 1 hr by TR-FRET assay.
The target of test [23] is MAP kinase-interacting serine/threonine-protein kinase 2 (Homo sapiens, UniProt Q9HBH9). Kind of test: Binding affinity to recombinant human full-length N-terminal GST-tagged MKNK2 expressed in baculovirus expression system using RS peptide as substrate incubated for 1 hr by TR-FRET assay.
The target in test [24] is NUAK family SNF1-like kinase 1 (Homo sapiens, UniProt O60285). The test is described as follows: Binding affinity to recombinant full-length N-terminal His-FLAG-GST-tagged NUAK1 (unknown origin) expressed in baculovirus infected Sf9 insect cells incubated for 1 hr by TR-FRET assay.

Chain of Tyrosine-protein kinase Blk (P51451 whole entry, the tested form may be a part): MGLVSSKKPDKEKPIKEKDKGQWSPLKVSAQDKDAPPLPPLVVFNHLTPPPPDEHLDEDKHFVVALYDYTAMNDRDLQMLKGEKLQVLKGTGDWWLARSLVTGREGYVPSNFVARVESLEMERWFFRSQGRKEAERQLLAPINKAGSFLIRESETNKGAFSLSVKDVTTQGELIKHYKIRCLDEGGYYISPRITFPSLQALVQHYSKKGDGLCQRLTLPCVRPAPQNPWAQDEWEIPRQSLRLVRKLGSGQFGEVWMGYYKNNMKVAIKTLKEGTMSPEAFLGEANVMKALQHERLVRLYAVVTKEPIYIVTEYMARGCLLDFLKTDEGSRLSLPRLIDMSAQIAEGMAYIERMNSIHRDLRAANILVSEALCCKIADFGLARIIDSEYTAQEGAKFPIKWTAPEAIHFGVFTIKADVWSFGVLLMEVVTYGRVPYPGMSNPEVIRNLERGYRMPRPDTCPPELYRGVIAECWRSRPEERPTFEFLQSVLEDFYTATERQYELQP
Chain of STE20-like serine/threonine-protein kinase (Q9H2G2 whole entry, the tested form may be a part): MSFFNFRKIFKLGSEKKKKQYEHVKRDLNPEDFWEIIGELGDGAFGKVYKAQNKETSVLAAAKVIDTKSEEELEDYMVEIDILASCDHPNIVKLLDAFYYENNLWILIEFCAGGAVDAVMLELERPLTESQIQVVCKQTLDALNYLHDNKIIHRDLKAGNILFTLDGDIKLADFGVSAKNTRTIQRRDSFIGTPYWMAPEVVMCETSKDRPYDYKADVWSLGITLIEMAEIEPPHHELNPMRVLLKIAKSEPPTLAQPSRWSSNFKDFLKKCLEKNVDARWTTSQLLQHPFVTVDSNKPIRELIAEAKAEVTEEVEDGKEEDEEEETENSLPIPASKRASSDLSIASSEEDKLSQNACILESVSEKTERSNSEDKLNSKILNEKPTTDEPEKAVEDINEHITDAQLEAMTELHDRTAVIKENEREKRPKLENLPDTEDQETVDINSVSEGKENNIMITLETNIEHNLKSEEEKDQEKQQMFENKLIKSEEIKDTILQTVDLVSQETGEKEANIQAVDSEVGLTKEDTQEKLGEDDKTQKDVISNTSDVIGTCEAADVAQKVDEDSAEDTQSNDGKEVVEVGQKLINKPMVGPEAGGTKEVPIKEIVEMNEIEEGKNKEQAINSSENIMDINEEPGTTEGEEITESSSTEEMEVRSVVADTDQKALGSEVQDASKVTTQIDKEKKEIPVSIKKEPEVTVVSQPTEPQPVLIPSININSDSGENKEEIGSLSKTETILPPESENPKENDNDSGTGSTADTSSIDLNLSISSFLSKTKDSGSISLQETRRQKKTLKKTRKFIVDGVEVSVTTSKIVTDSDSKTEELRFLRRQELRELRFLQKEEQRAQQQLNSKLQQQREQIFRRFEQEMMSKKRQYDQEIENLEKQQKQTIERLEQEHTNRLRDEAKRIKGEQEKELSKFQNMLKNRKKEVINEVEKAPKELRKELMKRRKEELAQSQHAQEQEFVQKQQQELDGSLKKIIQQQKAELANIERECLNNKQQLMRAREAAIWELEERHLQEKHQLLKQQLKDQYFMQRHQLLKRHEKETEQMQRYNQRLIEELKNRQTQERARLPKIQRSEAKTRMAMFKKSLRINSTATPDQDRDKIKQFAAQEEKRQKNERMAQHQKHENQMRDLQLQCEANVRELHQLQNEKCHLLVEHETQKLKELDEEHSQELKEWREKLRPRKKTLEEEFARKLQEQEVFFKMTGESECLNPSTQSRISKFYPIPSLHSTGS
Chain of Serine/threonine-protein kinase ULK3 (Q6PHR2 whole entry): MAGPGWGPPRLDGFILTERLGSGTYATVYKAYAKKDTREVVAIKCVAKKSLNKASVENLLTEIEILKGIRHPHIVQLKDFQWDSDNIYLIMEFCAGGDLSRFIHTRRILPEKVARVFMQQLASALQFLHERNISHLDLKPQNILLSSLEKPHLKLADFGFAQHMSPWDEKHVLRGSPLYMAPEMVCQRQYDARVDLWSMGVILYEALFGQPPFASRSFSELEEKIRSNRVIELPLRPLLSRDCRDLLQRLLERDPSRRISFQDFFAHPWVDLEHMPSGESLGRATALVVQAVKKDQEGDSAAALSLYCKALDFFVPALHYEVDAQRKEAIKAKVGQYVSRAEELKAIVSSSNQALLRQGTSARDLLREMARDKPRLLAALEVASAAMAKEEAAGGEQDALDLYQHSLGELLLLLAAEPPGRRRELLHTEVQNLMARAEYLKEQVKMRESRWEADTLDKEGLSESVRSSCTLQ
Chain of Fibroblast growth factor receptor 2 (P21802 whole entry, the tested form may be a part): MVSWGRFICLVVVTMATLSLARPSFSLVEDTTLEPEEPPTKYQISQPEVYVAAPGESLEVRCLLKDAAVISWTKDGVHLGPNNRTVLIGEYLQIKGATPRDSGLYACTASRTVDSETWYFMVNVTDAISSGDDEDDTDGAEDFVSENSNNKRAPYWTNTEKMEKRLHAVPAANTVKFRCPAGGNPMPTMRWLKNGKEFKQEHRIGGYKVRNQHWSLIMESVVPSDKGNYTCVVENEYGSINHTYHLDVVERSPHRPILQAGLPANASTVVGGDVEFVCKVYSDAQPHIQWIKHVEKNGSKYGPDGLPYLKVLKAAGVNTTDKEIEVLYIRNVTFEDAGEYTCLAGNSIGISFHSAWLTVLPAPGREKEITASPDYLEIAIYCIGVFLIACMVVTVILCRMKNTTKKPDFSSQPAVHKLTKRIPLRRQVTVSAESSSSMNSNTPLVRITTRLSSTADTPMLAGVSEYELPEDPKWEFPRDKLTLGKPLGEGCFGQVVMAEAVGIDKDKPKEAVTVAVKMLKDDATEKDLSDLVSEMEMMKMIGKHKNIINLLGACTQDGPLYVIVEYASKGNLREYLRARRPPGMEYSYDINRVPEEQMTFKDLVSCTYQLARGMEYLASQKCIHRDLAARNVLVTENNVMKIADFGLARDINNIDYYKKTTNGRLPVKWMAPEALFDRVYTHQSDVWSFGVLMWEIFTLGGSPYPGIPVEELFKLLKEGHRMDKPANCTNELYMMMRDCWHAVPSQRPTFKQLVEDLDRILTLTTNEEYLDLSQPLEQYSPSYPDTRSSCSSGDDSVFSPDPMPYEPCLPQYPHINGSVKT
Chain of Tyrosine-protein kinase Fer (P16591 whole entry): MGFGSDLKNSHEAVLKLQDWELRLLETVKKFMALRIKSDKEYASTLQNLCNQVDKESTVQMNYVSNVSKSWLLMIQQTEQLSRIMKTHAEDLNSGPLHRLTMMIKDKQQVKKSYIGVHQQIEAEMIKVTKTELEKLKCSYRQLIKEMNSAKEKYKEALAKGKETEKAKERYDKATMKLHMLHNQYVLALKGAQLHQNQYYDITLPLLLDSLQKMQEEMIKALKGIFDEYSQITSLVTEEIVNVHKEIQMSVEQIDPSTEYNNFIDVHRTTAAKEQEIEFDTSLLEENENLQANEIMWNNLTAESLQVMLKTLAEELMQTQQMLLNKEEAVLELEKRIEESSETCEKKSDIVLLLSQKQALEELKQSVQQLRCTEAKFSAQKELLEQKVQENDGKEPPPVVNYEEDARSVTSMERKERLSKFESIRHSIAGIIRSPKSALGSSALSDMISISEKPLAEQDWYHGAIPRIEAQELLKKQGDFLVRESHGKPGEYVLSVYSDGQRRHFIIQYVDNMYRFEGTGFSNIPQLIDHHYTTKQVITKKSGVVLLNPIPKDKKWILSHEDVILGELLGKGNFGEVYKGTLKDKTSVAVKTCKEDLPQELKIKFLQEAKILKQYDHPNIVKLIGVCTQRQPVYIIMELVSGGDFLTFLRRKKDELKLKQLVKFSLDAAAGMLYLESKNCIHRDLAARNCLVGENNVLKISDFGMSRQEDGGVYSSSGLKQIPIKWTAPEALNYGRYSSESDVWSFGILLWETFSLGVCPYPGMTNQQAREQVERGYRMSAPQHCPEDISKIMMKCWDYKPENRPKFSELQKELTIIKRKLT
Chain of MAP kinase-interacting serine/threonine-protein kinase 2 (Q9HBH9 whole entry): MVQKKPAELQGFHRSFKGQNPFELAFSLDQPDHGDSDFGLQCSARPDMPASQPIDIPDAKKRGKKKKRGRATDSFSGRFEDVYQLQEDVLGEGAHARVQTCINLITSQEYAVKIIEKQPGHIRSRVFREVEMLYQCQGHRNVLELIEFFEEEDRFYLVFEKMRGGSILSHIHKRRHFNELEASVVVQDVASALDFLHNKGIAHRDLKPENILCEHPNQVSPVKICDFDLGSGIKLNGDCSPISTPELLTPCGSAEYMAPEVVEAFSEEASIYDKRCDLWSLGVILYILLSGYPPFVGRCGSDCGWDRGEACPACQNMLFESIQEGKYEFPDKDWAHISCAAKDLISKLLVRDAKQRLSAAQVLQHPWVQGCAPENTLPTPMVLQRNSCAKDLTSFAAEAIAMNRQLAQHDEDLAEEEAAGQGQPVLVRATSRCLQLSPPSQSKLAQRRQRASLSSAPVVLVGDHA

One may read the Kd as the concentration at which binding is half-saturated. As for `CO[C@@H]1[C@H](NCCOCCOCCOCCNC(=O)CCC2=[N+]3C(=Cc4c(C)cc(C)n4[B-]3(F)F)C=C2)C[C@H]2O[C@]1(C)n1c3ccccc3c3c4c(c5c6ccccc6n2c5c31)C(=O)NC4`, the Kd in test [1] came to 61 nM; in test [2] it was 718 nM; in [3] it was 116 nM; in test [4], 531 nM; in test [5], 58 nM; in [6], 4 nM. Moreover, the dissociation constant Kd in test [7] turned out to be 1060 nM; in test [8], 4 nM; in test [9], 72 nM; in [10], 242 nM; in test [11], 16 nM; in test [12] it was 41 nM. The Kd amounted to 135 nM in test [13]; 5 nM in test [14]; 27 nM in test [15]; 11 nM in test [16]; 63 nM in test [17]; 30 nM in [18]. The Kd was 586 nM in test [19]; 45 nM in test [20]; 352 nM in [21]; 65 nM in test [22]; 162 nM in test [23]; 15 nM in test [24].

In the case of `CO[C@@H]1[C@H](N(C)CCOCCOCCOCCNC(=O)CCC2=[N+]3C(=Cc4c(C)cc(C)n4[B-]3(F)F)C=C2)C[C@H]2O[C@]1(C)n1c3ccccc3c3c4c(c5c6ccccc6n2c5c31)C(=O)NC4`, the Kd in test [1] amounted to 78 nM; in [2] it was 1490 nM; in [3] it was 42 nM; in [4] it was 947 nM; in test [5] it was 44 nM; in [6] it was 6 nM. For the same compound, the Kd in test [7] stood at 1460 nM; in test [8], 2 nM; in test [9] it was 46 nM; in [10], 361 nM; in test [11] it was 14 nM; in [12], 15 nM. Moreover, the Kd in test [13] came out at 223 nM; in test [14], 6 nM; in test [15], 30 nM; in [16] it was 6 nM; in [17], 45 nM; in test [18] it was 61 nM. Further, the Kd in test [19] stood at 588 nM; in [20], 46 nM; in test [21] it was 445 nM; in [22], 17 nM; in test [23], 205 nM; in test [24], 13 nM.

Source of the values: ChEMBL document CHEMBL4321812, “Structure-based rational design of staurosporine-based fluorescent probe with broad-ranging kinase affinity for kinase panel application” (Bioorg Med Chem Lett, 2019).
